For 18 compounds, IC50 results are on record in US20260078120A1, “SUBSTITUTED PYRIDOPYRIMIDINONES” (MIRATI THERAPEUTICS, INC., priority 2022, published 2026).

Assay type in all cases: cell-based
The subject of assay [1] is T47D (PI3Kα H1047R mutant) cells. In words: Inhibition of pAKT formation, alphaLISA SureFire Ultra AKT 1/2/3 (pS473), T47D cells. The note with it: Homo sapiens, T47D, T47D (PI3Kα H1047R mutant) cells; inhibition of pAKT (pS473) formation; approximately one hour or 24 hours treatment; read-out: T47D pAKT (H1047R mutant) IC50. The procedure: The ability of a compound of Formula (I) to inhibit the formation of pAKT was measured using alphaLISA Surefire Ultra AKT 1/2/3 (pS473) Assay Kit (#ALSU-PAKT-B50K) was obtained from Perkin Elmer (Waltham, MA).
To prepare assay plates for pAKT alphaLISA assays, cells were trypsinized, resuspended in fresh media, and viable cells were counted utilizing trypan blue exclusion. Prior to seeding, cells were washed with PBS and resuspended in HBSS (Gibco, #14025092). T47D (12,000/w), SKBR3(12,000/w), or MKN1(24,000/w) cells were seeded at 12 μl per well in a solid white flat bottom 384 cell culture plate (Perkin Elmer #6007680).
Immediately after seeding, cells were dosed using an Echo Liquid Handler (Beckman Coulter) with compounds at a […] starting concentration and serially diluted (1:4) for a total of 10 concentrations. […] Cells were incubated with the compounds (solubilized in DMSO) for approximately one hour or 24 hours at 37° C. After one hour (or 24 hours) of treatment, cells were lysed with 3 μl of the 5× lysis buffer (provided and incubated at room temperature for 15 min on a microtiter plate shaker). Once cells were sufficiently lysed, 7.5 μl of the acceptor bead mix (made using the manufacturers recommended dilutions) was added to each well and left on the microtiter plate shaker for 1 min prior to incubating plates at room temperature for one hour, in the absence of light. After one hour of incubation with the acceptor bead mix, 7.5 μl of the donor bead mix (made using the manufacturers recommended dilutions) was added to each well and left on the microtiter plate shaker for 1 min prior to incubating plates at room temperature overnight in the absence of light. Plates were then imaged the following day using a CLARIOstar microplate reader (BMG Labtech, Germany).
Percent of control values were calculated by subtracting the average signal from the positive control (alpelisib) treated wells from all treated wells (including DMSO control wells) and then divided by the average signal from the vehicle DMSO treated control wells. Percent of vehicle control values were plotted as log (inhibitor) vs. response-Variable slope (four parameters) for curve fitting and IC50 values were determined using XLfit.
Key: N.D. =not determined
Inhibition of pAKT in T47D (PI3Kα H1047R mutant) cells by Exemplary Compounds of Formula (I)
In general terms: Bead proximity is the source of the signal in Alpha formats.

Assay [2] has the same test system. The assay can be described thus: CellTiter-Glo 2.0 luminescent cell viability assay, 72 hours, T47D cells. As to conditions: T47D (PI3Kα H1047R mutant) cells, CellTiter-Glo, approximately 72 hours, read-out: T47D (H1047R mutant) Viability IC50. In outline:
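Viability was measured by CellTiter-Glo 2.0 luminescence after approximately 72 h of compound exposure at 37° C. Plating was 1000 cells per well the day before dosing, with ten 1:4 dilutions from a 10 µM top concentration. Values as percent of vehicle were fitted by variable-slope log(inhibitor) regression to give IC50.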
On the technique in general: ATP-based viability assays read luminescence as a measure of living cells.

Assay [3] deals with SKBR3 (PI3Kα wild type) cells. The assay can be described thus: CellTiter-Glo 2.0 luminescent cell viability assay, 72 hours, SKBR3 cells. As to conditions: SKBR3 (PI3Kα wild type) cells, CellTiter-Glo, approximately 72 hours, read-out: SKBR3 (WT) Viability IC50. The procedure, abridged:
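Viability measured via CTG luminescence following roughly 72 hours of compound exposure at 37° C. Dosing used a 10 um starting concentration diluted 1:4 over 10 points; percent-of-vehicle data fitted with a variable-slope four-parameter model for IC50.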

The structures appear in SMILES notation. Like-named read-outs stand apart in the source and are kept apart here.

As for `Cc1cc([C@@H](C)Nc2ccccc2C(=O)O)c2nc(N3CCN(c4ccc(C#N)cc4C)CC3)c(C)c(=O)n2c1` [Example 10-77, (R)-2-((1-(2-(4-(4-cyano-2-methylphenyl)piperazin-1-yl)-3,7-dimethyl-4-oxo-4H-pyrido[1,2-a]pyrimidin-9-yl)ethyl)amino)benzoic acid], the IC50 (in general, the concentration at which inhibition is half-maximal) in assay [1] is 3.8 nM; in assay [2] (Homo sapiens, T47D, 72 h) it was 107 nM; in assay [3] (Homo sapiens, SK-BR-3, 72 h), more than 10000 nM.

In the case of `Cc1cc([C@@H](C)Nc2ccccc2C(=O)O)c2nc(N3Cc4cc(F)c(F)cc4C3)c(C#N)c(=O)n2c1` [Example 10-87, (R)-2-((1-(3-cyano-2-(5,6-difluoroisoindolin-2-yl)-7-methyl-4-oxo-4H-pyrido[1,2-a]pyrimidin-9-yl)ethyl)amino)benzoic acid], the IC50 was 2.23 nM in assay [1]; 80.2 nM in assay [2] (Homo sapiens, T47D, 72 h); more than 10000 nM in assay [3] (Homo sapiens, SK-BR-3, 72 h).

As for `Cc1cc([C@@H](C)Nc2ccccc2C(=O)O)c2nc(N3CCCC(F)(F)C3)c(C)c(=O)n2c1` [Example 10-18, (R)-2-((1-(2-(3,3-difluoropiperidin-1-yl)-3,7-dimethyl-4-oxo-4H-pyrido[1,2-a]pyrimidin-9-yl)ethyl)amino)benzoic acid], the IC50 is 2.01 nM in assay [1]; 38.4 nM in assay [2] (Homo sapiens, T47D, 72 h); more than 10000 nM in assay [3] (Homo sapiens, SK-BR-3, 72 h).

For `Cc1cc([C@@H](C)Nc2ccccc2C(=O)O)c2nc(N3CCN(c4ccc(F)cc4F)CC3)c(C#N)c(=O)n2c1` [Example 10-86, (R)-2-((1-(3-cyano-2-(4-(2,4-difluorophenyl)piperazin-1-yl)-7-methyl-4-oxo-4H-pyrido[1,2-a]pyrimidin-9-yl)ethyl)amino)benzoic acid], the half-inhibitory concentration (IC50) in assay [1] was 15.5 nM; in assay [2] (Homo sapiens, T47D, 72 h), 80 nM; in assay [3] (Homo sapiens, SK-BR-3, 72 h), more than 10000 nM.

For `COC1(C)CCN(c2nc3c([C@@H](C)Nc4ccccc4C(=O)O)cc(C)cn3c(=O)c2C#N)CC1` [Example 10-78, (R)-2-((1-(3-cyano-2-(4-methoxy-4-methylpiperidin-1-yl)-7-methyl-4-oxo-4H-pyrido[1,2-a]pyrimidin-9-yl)ethyl)amino)benzoic acid], the IC50 in assay [1] is 2.21 nM; in assay [2] (Homo sapiens, T47D, 72 h), 74 nM; in assay [3] (Homo sapiens, SK-BR-3, 72 h), more than 10000 nM.

For `Cc1cc([C@@H](C)Nc2ccccc2C(=O)O)c2nc(N3CC[C@@H]3C)c(C#N)c(=O)n2c1` (single isomer, unassigned) [Example 10-95], the IC50 is 1.38 nM in assay [1]; 111 nM in assay [2] (Homo sapiens, T47D, 72 h); more than 10000 nM in assay [3] (Homo sapiens, SK-BR-3, 72 h).

In the case of `Cc1cc([C@@H](C)Nc2ccc(Cl)nc2C(=O)O)c2nc(N3Cc4ccccc4C3)c(C)c(=O)n2c1` [Example 10-30, (R)-6-chloro-3-((1-(2-(isoindolin-2-yl)-3,7-dimethyl-4-oxo-4H-pyrido[1,2-a]pyrimidin-9-yl)ethyl)amino)picolinic acid], the IC50 in assay [1] was 3.62 nM; in assay [2], 55 nM; in assay [3], more than 10000 nM.

Turning to `Cc1cc([C@@H](C)Nc2ccccc2C(=O)O)c2nc(NC3CCC3)c(C#N)c(=O)n2c1` [Example 10-90, (R)-2-((1-(3-cyano-2-(cyclobutylamino)-7-methyl-4-oxo-4H-pyrido[1,2-a]pyrimidin-9-yl)ethyl)amino)benzoic acid], the IC50 in assay [1] was 0.596 nM; in assay [2] (Homo sapiens, T47D, 72 h), 82.4 nM; in assay [3] (Homo sapiens, SK-BR-3, 72 h), more than 10000 nM.

As to `Cc1cc([C@@H](C)Nc2ccc(Cl)nc2C(=O)O)c2nc(N3Cc4ccc(F)cc4C3)c(C#N)c(=O)n2c1` [Example 10-50, (R)-6-chloro-3-((1-(3-cyano-2-(5-fluoroisoindolin-2-yl)-7-methyl-4-oxo-4H-pyrido[1,2-a]pyrimidin-9-yl)ethyl)amino)picolinic acid], the IC50 in assay [1] is 1.34 nM; in assay [2] (Homo sapiens, T47D, 72 h), 66.5 nM; in assay [3] (Homo sapiens, SK-BR-3, 72 h), more than 10000 nM.

Take `Cc1cc([C@@H](C)Nc2ccccc2C(=O)O)c2nc(N3CCN(c4ccc(C#N)cc4F)CC3)c(C)c(=O)n2c1` [Example 10-55, (R)-2-((1-(2-(4-(4-cyano-2-fluorophenyl)piperazin-1-yl)-3,7-dimethyl-4-oxo-4H-pyrido[1,2-a]pyrimidin-9-yl)ethyl)amino)benzoic acid]: the IC50 is 3.35 nM in assay [1]; 72.4 nM in assay [2] (Homo sapiens, T47D, 72 h); 4140 nM in assay [3] (Homo sapiens, SK-BR-3, 72 h).

With `Cc1cc([C@@H](C)Nc2ccc(Cl)nc2C(=O)O)c2nc(N3Cc4ccccc4C3)c(C#N)c(=O)n2c1` [Example 10-14, (R)-6-chloro-3-((1-(3-cyano-2-(isoindolin-2-yl)-7-methyl-4-oxo-4H-pyrido[1,2-a]pyrimidin-9-yl)ethyl)amino)picolinic acid], the IC50 in assay [1] is 2.34 nM; in assay [2] (Homo sapiens, T47D, 72 h) it was 33.1 nM; in assay [3] (Homo sapiens, SK-BR-3, 72 h), 8790 nM.

As to `Cc1cc([C@@H](C)Nc2ccccc2C(=O)O)c2nc(N3CCN(c4cn(C)nc4C(F)(F)F)CC3)c(C)c(=O)n2c1` [Example 10-13, (R)-2-((1-(3,7-dimethyl-2-(4-(1-methyl-3-(trifluoromethyl)-1H-pyrazol-4-yl)piperazin-1-yl)-4-oxo-4H-pyrido[1,2-a]pyrimidin-9-yl)ethyl)amino)benzoic acid], the IC50 in assay [1] is 1 nM; in assay [2] (Homo sapiens, T47D, 72 h), 32.8 nM; in assay [3] (Homo sapiens, SK-BR-3, 72 h) it was 5890 nM.

Consider `Cc1cc([C@@H](C)Nc2ccccc2C(=O)O)c2nc(N3CC[C@@H]3CF)c(C#N)c(=O)n2c1` (single isomer, unassigned) [Example 10-53], for which the IC50 was 4.35 nM in assay [1]; 77.2 nM in assay [2] (Homo sapiens, T47D, 72 h); more than 10000 nM in assay [3] (Homo sapiens, SK-BR-3, 72 h).

As to `Cc1cc([C@@H](C)Nc2ccccc2C(=O)O)c2nc(N3CCN(c4cc(C)no4)CC3)c(C)c(=O)n2c1` [Example 10-48, (R)-2-((1-(3,7-dimethyl-2-(4-(3-methylisoxazol-5-yl)piperazin-1-yl)-4-oxo-4H-pyrido[1,2-a]pyrimidin-9-yl)ethyl)amino)benzoic acid], the IC50 in assay [1] is 2.96 nM; in assay [2] (Homo sapiens, T47D, 72 h), 66.3 nM; in assay [3] (Homo sapiens, SK-BR-3, 72 h), more than 10000 nM.

With `Cc1cc([C@@H](C)Nc2ccccc2C(=O)O)c2nc(N(C)CC3CC3)c(C#N)c(=O)n2c1` [Example 10-80, (R)-2-((1-(3-cyano-2-((cyclopropylmethyl)(methyl)amin0)-7-methyl-4-oxo-4H-pyrido[1,2-a]pyrimidin-9-yl)ethyl)amino)benzoic acid], the IC50 is 1.98 nM in assay [1]; 75 nM in assay [2] (Homo sapiens, T47D, 72 h); more than 10000 nM in assay [3] (Homo sapiens, SK-BR-3, 72 h).

For the compound `Cc1cc([C@@H](C)Nc2ccccc2C(=O)O)c2nc(N3CCC(F)(F)CC3)c(Cl)c(=O)n2c1` [Example 10-114, (R)-2-((1-(3-chloro-2-(4,4-difluoropiperidin-1-yl)-7-methyl-4-oxo-4H-pyrido[1,2-a]pyrimidin-9-yl)ethyl)amino)benzoic acid], the IC50 in assay [1] was 2.58 nM; in assay [2] (Homo sapiens, T47D, 72 h), 98.5 nM; in assay [3] (Homo sapiens, SK-BR-3, 72 h) it was more than 10000 nM.

On to `Cc1cc([C@@H](C)Nc2ccccc2C(=O)O)c2nc(N3CCC4(CC3)C(F)(F)C4(F)F)c(C#N)c(=O)n2c1` [Example 10-81, (R)-2-((1-(3-cyano-7-methyl-4-oxo-2-(1,1,2,2-tetrafluoro-6-azaspiro[2.5]octan-6-yl)-4H-pyrido[1,2-a]pyrimidin-9-yl)ethyl)amino)benzoic acid], for which the IC50 in assay [1] was 2.53 nM; in assay [2] (Homo sapiens, T47D, 72 h), 78.5 nM; in assay [3] (Homo sapiens, SK-BR-3, 72 h), more than 10000 nM.

For the compound `Cc1cc([C@@H](C)Nc2ccccc2C(=O)O)c2nc(N3CCN(c4ccc(C#N)cc4C)CC3)c(C#N)c(=O)n2c1` [Example 10-101, (R)-2-((1-(3-cyano-2-(4-(4-cyano-2-methylphenyl)piperazin-1-yl)-7-methyl-4-oxo-4H-pyrido[1,2-a]pyrimidin-9-yl)ethyl)amino)benzoic acid], the IC50 in assay [1] was 5.78 nM; in assay [2] (Homo sapiens, T47D, 72 h) it was 86.8 nM; in assay [3] (Homo sapiens, SK-BR-3, 72 h) it was more than 10000 nM.
